Source: ChEMBL document CHEMBL3044735, “Search of antimycobacterial activities in hybrid molecules with benzopyran skeleton” (2011)
In brackets after ≈: the same amount, converted by molar mass.

Assays:
[1] = test system: Mycobacterium tuberculosis; test: Antimycobacterial activity against Mycobacterium tuberculosis H37Rv after 30 days by agar microdilution method; assay type: functional
[2] = test system: Mycobacterium tuberculosis; test: Antimycobacterial activity against Mycobacterium tuberculosis H37Ra after 5 days by two-fold dilution method; assay type: functional; details: 120 h

| SMILES | MIC [1] | MIC [2] |
| --- | --- | --- |
| CC1(C)CCc2cc(C(C#Cc3ccccc3)N3CCOCC3)ccc2O1 (stereo unspecified) | 12.5 µg/mL (≈ 34.6 µM) | > 12.5 µg/mL |
| CC1(C)CCc2cc(C(C#Cc3ccccc3)N3CCCCC3)ccc2O1 (stereo unspecified) | 6.25 µg/mL (≈ 17.4 µM) | > 12.5 µg/mL |
| CCCCCCC#CC(c1ccc2c(c1)CCC(C)(C)O2)N1CCCCC1 (stereo unspecified) | 1.56 µg/mL (≈ 4.24 µM) | > 12.5 µg/mL |
| CCCCCC#CC(c1ccc2c(c1)CCC(C)(C)O2)N1CCOCC1 (stereo unspecified) | 3.12 µg/mL (≈ 8.78 µM) | > 12.5 µg/mL |
| CCCCCCC#CC(c1ccc2c(c1)CCC(C)(C)O2)N1CCOCC1 (stereo unspecified) |  | > 12.5 µg/mL |
| CCOC(=O)[C@H]1N[C@@H](c2ccc(OC)cc2)[C@@H]([N+](=O)[O-])[C@@H]1c1ccc2c(c1)CCC(C)(C)O2 (relative stereo) | > 12.5 µg/mL | > 12.5 µg/mL |
| CCOC(=O)[C@H]1N[C@@H](c2ccccc2)[C@@H]([N+](=O)[O-])[C@@H]1c1ccc2c(c1)CCC(C)(C)O2 (relative stereo) | 12.5 µg/mL (≈ 29.4 µM) | > 12.5 µg/mL |
| CCOC(=O)[C@H]1N[C@@H](c2cccc([N+](=O)[O-])c2)[C@@H]([N+](=O)[O-])[C@@H]1c1ccc2c(c1)CCC(C)(C)O2 (relative stereo) | 12.5 µg/mL (≈ 26.6 µM) | > 12.5 µg/mL |
| CCOC(=O)[C@H]1N[C@@H](c2ccc(OC)cc2)[C@@]2([N+](=O)[O-])C(c3ccc(OC)cc3)Oc3ccccc3[C@@H]12 (relative stereo) | > 12.5 µg/mL | > 12.5 µg/mL |
| CCOC(=O)[C@H]1N[C@@H](c2ccc([N+](=O)[O-])cc2)[C@@]2([N+](=O)[O-])C(c3ccc(OC)cc3)Oc3ccccc3[C@@H]12 (relative stereo) | 12.5 µg/mL (≈ 24.1 µM) | > 12.5 µg/mL |
| CC[C@@H](CO)NCCN[C@@H](CC)CO [ETHAMBUTOL] | 3.25 µg/mL (≈ 15.9 µM) |  |
| NNC(=O)c1ccncc1 [ISONIAZID] | 0.75 µg/mL (≈ 5.47 µM) |  |
